Data: ChEMBL document CHEMBL1938244, “Synthesis, anticancer activity and apoptosis inducing ability of bisindole linked pyrrolo[2,1-c][1,4]benzodiazepine conjugates” (2012)
Activity calls are given as the source filed them. No cut-off for these calls is given here.

Legend:
MCF7 [1] = experiment: Induction of cell cycle arrest in human MCF7 cells assessed as accumulation of cells in G1 phase at 2 uM after 24 hrs by flow cytometry relative to untreated control; format: functional
MCF7 [2] = experiment: Induction of cell cycle arrest in human MCF7 cells assessed as accumulation of cells in G1 phase at 8 uM after 24 hrs by flow cytometry (reference value: 65.58%); format: functional
A549 = experiment: Anticancer activity against human A549 cells by SRB method; format: functional
MCF7 [3] = experiment: Induction of cell cycle arrest in human MCF7 cells assessed as accumulation of cells in G0 phase at 4 uM after 24 hrs by flow cytometry relative to untreated control; format: functional
MCF7 [4] = experiment: Inhibition of HDAC8 protein expression in human MCF7 cells at 2 uM after 24 hrs by Western blotting; format: functional, cell-based
MCF7 [5] = experiment: Induction of cell cycle arrest in human MCF7 cells assessed as accumulation of cells in G2/M phase at 4 uM after 24 hrs by flow cytometry relative to untreated control; format: functional
MCF7 [6] = experiment: Induction of apoptosis in human MCF7 cells assessed as PARP-cleavage at 8 uM after 24 hrs by Western blot analysis; format: functional, cell-based
MCF7 [7] = experiment: Induction of cell cycle arrest in human MCF7 cells assessed as accumulation of cells in G2/M phase at 2 uM after 24 hrs by flow cytometry (reference value: 36.23%); format: functional
MCF7 [8] = experiment: Induction of cell cycle arrest in human MCF7 cells assessed as accumulation of cells in G2/M phase at 8 uM after 24 hrs by flow cytometry relative to untreated control; format: functional
MCF7 [9] = experiment: Induction of cell cycle arrest in human MCF7 cells assessed as accumulation of cells in G1 phase at 4 uM after 24 hrs by flow cytometry relative to untreated control; format: functional
MCF7 [10] = experiment: Induction of cell cycle arrest in human MCF7 cells assessed as accumulation of cells in G1 phase at 4 uM after 24 hrs by flow cytometry (reference value: 65.58%); format: functional
MCF7 [11] = experiment: Induction of cell cycle arrest in human MCF7 cells assessed as accumulation of cells in G0 phase at 4 uM after 24 hrs by flow cytometry (reference value: 3.22%); format: functional
SiHa = experiment: Anticancer activity against human SiHa cells by SRB method; format: functional
COLO 205 = experiment: Anticancer activity against human COLO205 cells by SRB method; format: functional
MCF7 [12] = experiment: Induction of cell cycle arrest in human MCF7 cells assessed as accumulation of cells in G0 phase at 2 uM after 24 hrs by flow cytometry relative to untreated control; format: functional
MCF7 [13] = experiment: Induction of cell cycle arrest in human MCF7 cells assessed as accumulation of cells in S phase at 8 uM after 24 hrs by flow cytometry relative to untreated control; format: functional
MCF7 [14] = experiment: Induction of cell cycle arrest in human MCF7 cells assessed as accumulation of cells in G2/M phase at 8 uM after 24 hrs by flow cytometry (reference value: 25.65%); format: functional
MCF7 [15] = experiment: Induction of cell cycle arrest in human MCF7 cells assessed as accumulation of cells in G2/M phase at 4 uM after 24 hrs by flow cytometry (reference value: 25.65%); format: functional
MCF7 [16] = experiment: Induction of cell cycle arrest in human MCF7 cells assessed as accumulation of cells in S phase at 8 uM after 24 hrs by flow cytometry (reference value: 5.55%); format: functional
MCF7 [17] = experiment: Induction of cell cycle arrest in human MCF7 cells assessed as accumulation of cells in S phase at 4 uM after 24 hrs by flow cytometry (reference value: 5.55%); format: functional
MCF7 [18] = experiment: Induction of cell cycle arrest in human MCF7 cells assessed as accumulation of cells in G1 phase at 8 uM after 24 hrs by flow cytometry relative to untreated control; format: functional
MCF7 [19] = experiment: Induction of cell cycle arrest in human MCF7 cells assessed as accumulation of cells in G0 phase at 2 uM after 24 hrs by flow cytometry (reference value: 2.9%); format: functional
MCF7 [20] = experiment: Anticancer activity against human MCF7 cells assessed as cell death at 2 uM after 24 hrs by MTT assay; format: functional
MCF7 [21] = experiment: Induction of cell cycle arrest in human MCF7 cells assessed as accumulation of cells in S phase at 2 uM after 24 hrs by flow cytometry (reference value: 14.87%); format: functional
MCF7 [22] = experiment: Induction of cell cycle arrest in human MCF7 cells assessed as accumulation of cells in G1 phase at 2 uM after 24 hrs by flow cytometry (reference value: 46%); format: functional
MCF7 [23] = experiment: Inhibition of HDAC2 protein expression in human MCF7 cells at 2 uM after 24 hrs by Western blotting; format: functional, cell-based
MCF7 [24] = experiment: Induction of apoptosis in human MCF7 cells assessed as caspase-7 activation at 8 uM after 24 hrs by Western blot analysis; format: functional, cell-based
Tubulin (Homo sapiens) = Tubulin (Homo sapiens) (UniProt P68371+Q9H4B7+P0DPH7+P68366+Q13509+Q71U36+P04350+Q3ZCM7+P07437+P68363+Q9BQE3+Q6PEY2+Q13885+Q9BVA1+Q9BUF5); experiment: Inhibition of tubulin polymerization in human MCF7 cells at 2 uM after 24 hrs by FITC-conjugated immunostaining assay; format: cell-based
MCF7 [25] = experiment: Anticancer activity against human MCF7 cells by SRB method; format: functional
MCF7 [26] = experiment: Induction of cell cycle arrest in human MCF7 cells assessed as accumulation of cells in G0 phase at 8 uM after 24 hrs by flow cytometry (reference value: 3.22%); format: functional
MCF7 [27] = experiment: Induction of cell cycle arrest in human MCF7 cells assessed as accumulation of cells in G0 phase at 8 uM after 24 hrs by flow cytometry relative to untreated control; format: functional
MCF7 [28] = experiment: Inhibition of HDAC3 protein expression in human MCF7 cells at 2 uM after 24 hrs by Western blotting; format: functional, cell-based
MCF7 [29] = experiment: Induction of cell cycle arrest in human MCF7 cells assessed as accumulation of cells in S phase at 4 uM after 24 hrs by flow cytometry relative to untreated control; format: functional
MCF7 [30] = experiment: Induction of cell cycle arrest in human MCF7 cells assessed as accumulation of cells in S phase at 2 uM after 24 hrs by flow cytometry relative to untreated control; format: functional
MCF7 [31] = experiment: Induction of cell cycle arrest in human MCF7 cells assessed as accumulation of cells in G2/M phase at 2 uM after 24 hrs by flow cytometry relative to untreated control; format: functional
MCF7 [32] = experiment: Inhibition of HDAC1 protein expression in human MCF7 cells at 2 uM after 24 hrs by Western blotting; format: functional, cell-based
KB = experiment: Anticancer activity against human KB cells by SRB method; format: functional
A2780 = experiment: Anticancer activity against human A2780 cells by SRB method; format: functional
MCF7 [33] = experiment: Increase in p21 protein level in human MCF7 cells at 2 uM after 24 hrs by Western blotting; format: functional, cell-based

SMILES | Activity (MCF7 [1]) | Activity (MCF7 [2]) | Activity (MCF7 [3]) | inhibition (MCF7 [4]) | Activity (MCF7 [5]) | Activity (MCF7 [6]) | Activity (MCF7 [7]) | Activity (MCF7 [8]) | Activity (MCF7 [9]) | Activity (MCF7 [10]) | Activity (MCF7 [11]) | Activity (MCF7 [12]) | Activity (MCF7 [13]) | Activity (MCF7 [14]) | Activity (MCF7 [15]) | Activity (MCF7 [16]) | Activity (MCF7 [17]) | Activity (MCF7 [18]) | Activity (MCF7 [19]) | Activity (MCF7 [20]) | further results
COc1cc2c(cc1O)N=C[C@@H]1CCCN1C2=O | 55.11% | 58.22% | 9.27% | Active | 11.31% | Active | 34.4% | 8.05% | 70.84% | 69.54% | 9.56% | 3.14% | 4.53% | 7.15% | 11.33% | 4.59% | 9.57% | 57.74% | 3.72% | Active | GI50 (A549): 160 nM; GI50 (SiHa): 160 nM; GI50 (COLO 205): 110 nM; Activity (MCF7 [21]): 8.26%; Activity (MCF7 [22]): 53.62%; inhibition (MCF7 [23]): Active; Activity (MCF7 [24]): Active; inhibition (Tubulin (Homo sapiens)): inactive; GI50 (MCF7 [25]): 170 nM; Activity (MCF7 [26]): 30.04%; Activity (MCF7 [27]): 29.68%; inhibition (MCF7 [28]): Active; Activity (MCF7 [29]): 8.56%; Activity (MCF7 [30]): 8.02%; Activity (MCF7 [31]): 33.79%; inhibition (MCF7 [32]): Active; GI50 (KB): 170 nM; GI50 (A2780): 140 nM
COc1cc2c(cc1OCCCCOc1cccc(C(c3c[nH]c4ccccc34)c3c[nH]c4ccccc34)c1)N=C[C@@H]1CCCN1C2=O |  |  |  |  |  |  |  |  |  |  |  |  |  |  |  |  |  |  |  |  | GI50 (COLO 205): 28500 nM; GI50 (MCF7 [25]): 2010 nM; GI50 (A2780): 27000 nM
COc1cc2c(cc1OCCCCCOc1cccc(C(c3c[nH]c4ccccc34)c3c[nH]c4ccccc34)c1)N=C[C@@H]1CCCN1C2=O | 38.86% | 61.55% | 10.7% | Active | 10.74% | Active | 42.61% | 8.99% | 70.29% | 71.85% | 10.4% | 2.98% | 5.26% | 9.38% | 9.08% | 4.82% | 8.67% | 60.92% | 3.47% | 50% | GI50 (SiHa): 2200 nM; GI50 (COLO 205): 160 nM; Activity (MCF7 [33]): Active; Activity (MCF7 [21]): 14.56%; Activity (MCF7 [22]): 39.36%; inhibition (MCF7 [23]): Active; Activity (MCF7 [24]): Active; inhibition (Tubulin (Homo sapiens)): Active; GI50 (MCF7 [25]): 190 nM; Activity (MCF7 [26]): 24.25%; Activity (MCF7 [27]): 24.81%; inhibition (MCF7 [28]): Active; Activity (MCF7 [29]): 8.26%; Activity (MCF7 [30]): 15.42%; Activity (MCF7 [31]): 42.67%; inhibition (MCF7 [32]): Active; GI50 (KB): 2300 nM; GI50 (A2780): 180 nM
Oc1cccc(C(c2c[nH]c3ccccc23)c2c[nH]c3ccccc23)c1 | 51.23% | 46.98% | 3.63% | Active | 36.3% | Active | 37% | 37.97% | 50.56% | 50.68% | 4% | 2.8% | 10.02% | 37.93% | 36.08% | 9.08% | 9.24% | 45.99% | 2.9% | Active | Activity (MCF7 [21]): 10.1%; Activity (MCF7 [22]): 50%; inhibition (MCF7 [23]): Active; Activity (MCF7 [24]): Active; inhibition (Tubulin (Homo sapiens)): Active; Activity (MCF7 [26]): 6%; Activity (MCF7 [27]): 6.03%; inhibition (MCF7 [28]): Active; Activity (MCF7 [29]): 9.41%; Activity (MCF7 [30]): 9.86%; Activity (MCF7 [31]): 36.03%; inhibition (MCF7 [32]): Active
Oc1ccc(C(c2c[nH]c3ccccc23)c2c[nH]c3ccccc23)cc1 | 53.85% | 47.59% | 5.01% | Active | 35.56% | Active | 34% | 37.97% | 49.65% | 50.97% | 5% | 3.16% | 8.99% | 36.44% | 34.69% | 8.97% | 9.34% | 46.19% | 3% | Active | Activity (MCF7 [21]): 9%; Activity (MCF7 [22]): 54%; inhibition (MCF7 [23]): Active; Activity (MCF7 [24]): Active; inhibition (Tubulin (Homo sapiens)): Active; Activity (MCF7 [26]): 7%; Activity (MCF7 [27]): 7.05%; inhibition (MCF7 [28]): Active; Activity (MCF7 [29]): 9.78%; Activity (MCF7 [30]): 9.26%; Activity (MCF7 [31]): 33.7%; inhibition (MCF7 [32]): Active
